Data from publication PMC5750217 (Nature Communications, 2018).

Biological target: T1, ASCT2 (Homo sapiens, UniProt Q15758)
T1 sequence (Q15758 1-541): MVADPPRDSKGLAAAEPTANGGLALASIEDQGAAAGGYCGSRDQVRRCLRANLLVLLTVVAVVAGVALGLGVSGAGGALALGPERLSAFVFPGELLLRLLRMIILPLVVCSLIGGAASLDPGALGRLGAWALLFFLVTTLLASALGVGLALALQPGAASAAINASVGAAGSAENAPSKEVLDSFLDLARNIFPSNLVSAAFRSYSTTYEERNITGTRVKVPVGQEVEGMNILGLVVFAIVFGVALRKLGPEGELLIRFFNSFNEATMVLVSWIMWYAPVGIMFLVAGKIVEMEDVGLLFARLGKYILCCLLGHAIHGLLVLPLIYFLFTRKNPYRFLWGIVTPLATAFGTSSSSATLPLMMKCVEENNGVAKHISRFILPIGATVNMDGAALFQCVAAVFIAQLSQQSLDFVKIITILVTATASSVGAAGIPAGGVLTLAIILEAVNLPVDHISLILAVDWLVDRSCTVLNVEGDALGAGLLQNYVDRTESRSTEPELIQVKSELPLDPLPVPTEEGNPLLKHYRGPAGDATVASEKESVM
Experiment: Two electrode voltage clamp, substrate-activated anion current in oocytes expressing ASCT2
Format: cell-based
Method: All chemicals were obtained from Sigma unless otherwise stated. Stage V oocytes were harvested from female Xenopus laevis (frogs) which were obtained from Nasco (Fort Alkinson, USA). Frogs were anaesthetised with 6.5 mM tricaine neutralised with 7.14 mM sodium bicarbonate. After making an incision in the abdomen of the frog, ovarian sacs were removed and stored in OR-2 buffer (82.5 mM NaCl, 2 mM KCl, 1 mM MgCl2, 5 mM hemisodium HEPES, pH 7.5). This surgical procedure follows a protocol (#2016/970) approved by the University of Sydney Animal Ethics Committee under the Australian Code of Practice for the Care and Use of Animals for Scientific Purposes. […]
After 2–4 days of microinjection, current recordings were made using the two electrode voltage clamp technique with a Geneclamp 500 amplifier (Axon Instruments, Foster City, CA) interfaced with a MacLab 2e chart recorder (ADI Instruments, Sydney, Australia) using the chart software, and a Digidata 1322A (Axon Instruments) controlled by an IBM-compatible computer using the pClamp software (version 10, Molecular Devices, Union City, CA). […] Current–voltage relationships were calculated by subtracting steady state current measurements in the absence of substrate from corresponding current measurements in the presence of substrate. […]

N[C@@H](CCC(=O)Nc1ccc([N+](=O)[O-])cc1)C(=O)O [GPNA, glutamyl-p-nitroanilide]
GPNA % inhibition of L-serine activated current (GPNA co-applied with EC50 of L-serine, 300 µM GPNA / 1 mM GPNA (Table 1 footnote)): 90 ± 5% | IC50 (co-applied with EC50 of L-serine, read-out: IC50 for inhibition of L-serine activated current): 90 ± 20 µM
